Data: patent US20250340577A1, “BETA-LACTOMASE INHIBITORS AND USES THEREOF” (Case Western Reserve University, priority 2021, published 2025)
Like-named read-outs stand apart in the source and are kept apart here.

How the values were obtained:
[1] = tested on: K. pneumoniae AR-BANK #0098 (KPC-2); type: in vivo; details: for T > MIC / Time High / Time Low: female, ICR, mouse, in vivo, iv
Method: (§1) A single dose PK study with MB_076 has been conducted to evaluate antibiotic exposure over time in plasma samples and thigh homogenates following a single dose IV administration in K. pneumoniae AR-BANK #0098 (KPC-2) thigh infection model with neutropenic female ICR mice. Among the PK parameters, t1/2, C0, AUClast, AUCINF, Vss and CL were evaluated (Table 7), while for PD parameters, C0/MIC, AUClast/MIC and T>MIC were calculated (Table 8). In particular, the % time over the minimum inhibitory concentration (T>MIC) was calculated for all dose groups to determine the impact of MB076 efficacy in this animal model. Plots of concentration in plasma and thigh homogenate versus time were created and the linearity of the resulting PK parameters was assessed.

[2] = type: in vivo; details: for Abdominal tone / Body weight after 1° dose / Body weight after 4° dose / Limb tone / Vocalization: QID q6h; for Piloerection: animals of 4, after 4° dose; for Vocalization: animals of 4
Method: A maximum tolerable dose (MTD) assessment was conducted to evaluate the tolerability of MB076 with meropenem and cilastatin combination. Neutropenic uninfected female ICR mice were used. Meropenem combined with cilastatin was subcutaneously (SC) administered followed by intravenous (IV) administration of MB076 within 10 min. Doses were administered four times (QID) with 6 h intervals (q6h) for one day. Animals were monitored for acute symptoms after the first dose administration and cage side observations were recorded for the subsequent QID doses. Moreover, the body weight of each animal was recorded daily.

E. coli 29838 = assay: MIC with cefepime, agar microdilution, CLSI; type: cell-based; details: compound fixed at 4 ug/ml; CTX-M-14, TEM-1
Method: (§2) Minimum inhibitory concentration (MIC) of MB076 and derivatives (PCF_038-043) in combination with cefepime.
(§3) MICs were determined by the Agar microdilution method, following CLSI guidelines. Compounds were tested at fixed concentration of 4 ug/ml in combination with cefepime.

K. pneumoniae ST17 = assay: MIC with cefepime, agar microdilution, CLSI; type: cell-based; details: compound fixed at 4 ug/ml; KPC-2, TEM, SHV, CTX-M-Group 1
Method: as §2, §3

K. pneumoniae ST258 B5 = assay: MIC with cefepime, agar microdilution, CLSI; type: cell-based; details: compound fixed at 4 ug/ml; KPC-2
Method: as §2, §3

[3] = tested on: E. coli DH10B pBC-SK SHV-2; assay: MIC with cefepime, agar microdilution, CLSI; type: cell-based; details: compound fixed at 4 ug/ml
Method: as §2, §3

[4] = tested on: Klebsiella pneumonia/FDA-CDC AR-BANK#0097; assay: MIC of MB076 alone or in combination with cefepime or meropenem; type: cell-based; details: Klebsiella pneumoniae; single agent; read-out: MIC
Method: as §3

[5] = tested on: Klebsiella pneumonia/FDA-CDC AR-BANK#0098; assay: as above; type: cell-based; details: Klebsiella pneumoniae; single agent; read-out: MIC
Method: as §3

[6] = tested on: Klebsiella pneumonia/BAA-1705; assay: as above; type: cell-based; details: Klebsiella pneumoniae, BAA1705; single agent; read-out: MIC
Method: as §3

[7] = Single dose IV PK in plasma and thigh homogenate, thigh infection model; type: in vivo, mice; details: for AUC(0-inf) / AUC(0-t) / C0 / clearance / half-life / Vd: female, ICR, mouse; for Vd: read-out: Vss
Method: as §1

[8] = MEM 500 mg/Kg + cilastatin 200 mg/Kg (SC) + MB076 25 mg/Kg (IV)
[9] = MEM 500 mg/Kg + cilastatin 200 mg/Kg (SC) + MB076 50 mg/Kg (IV)
[10] = MEM 1000 mg/Kg + cilastatin 200 mg/Kg (SC) + MB076 25 mg/Kg (IV)
[11] = MEM 1000 mg/Kg + cilastatin 200 mg/Kg (SC) + MB076 50 mg/Kg (IV)
[12] = MEM 1000 mg/Kg + cilastatin 200 mg/Kg (SC) + MB076 100 mg/Kg (IV)
[13] = plasma, 12.5 mg/kg IV single dose
[14] = plasma, 25 mg/kg IV single dose
[15] = plasma, 50 mg/kg IV single dose
[16] = plasma, 100 mg/kg IV single dose
[17] = thigh homogenate, 12.5 mg/kg IV single dose
[18] = thigh homogenate, 25 mg/kg IV single dose
[19] = thigh homogenate, 50 mg/kg IV single dose
[20] = thigh homogenate, 100 mg/kg IV single dose

Nc1nnc(SCC(=O)NC(Cn2cc(C(=O)O)nn2)B(O)O)s1 (centres unmarked) [MB076]
T > MIC ([1]; 12.5 mg/kg): 1.69% | Time High ([1]; 12.5 mg/kg): 0.40 h | Time Low ([1]; 12.5 mg/kg): 23.60 h | T > MIC ([1]; 12.5 mg/kg, 24 h): 0.24% | Time High ([1]; 12.5 mg/kg, 24 h): 0.06 h | Time Low ([1]; 12.5 mg/kg, 24 h): 23.94 h | T > MIC ([1]; 50 mg/kg): 1.75% | Time High ([1]; 50 mg/kg): 0.42 h | T > MIC ([1]; 50 mg/kg, 24 h): 3.89% | Time High ([1]; 50 mg/kg, 24 h): 0.93 h | T > MIC ([1]; 100 mg/kg): 2.72% | Time High ([1]; 100 mg/kg): 0.65 h | Time Low ([1]; 100 mg/kg): 23.35 h | T > MIC ([1]; 100 mg/kg, 24 h): 4.51% | Time High ([1]; 100 mg/kg, 24 h): 1.08 h | Time Low ([1]; 100 mg/kg, 24 h): 22.92 h | AUClast/MIC ([1]; plasma, 12.5 mg/kg IV): 1.77 h | AUClast/MIC ([1]; plasma, 25 mg/kg IV): 4.41 h | AUClast/MIC ([1]; plasma, 50 mg/kg IV): 9.75 h | AUClast/MIC ([1]; plasma, 100 mg/kg IV): 25.81 h | AUClast/MIC ([1]; thigh, 12.5 mg/kg IV): 0.25 h | AUClast/MIC ([1]; thigh, 25 mg/kg IV): 0.43 h | AUClast/MIC ([1]; thigh, 50 mg/kg IV): 1.56 h | AUClast/MIC ([1]; thigh, 100 mg/kg IV): 4.30 h | Abdominal tone [2, 8]: Mild | Body weight after 1° dose [2, 8]: 23 | Body weight after 4° dose [2, 8]: 22 | Limb tone [2, 8]: Mild | Abdominal tone [2, 9]: increased | Body weight after 1° dose [2, 9]: 23 | Body weight after 4° dose [2, 9]: 22.2 | Limb tone [2, 9]: Mild | Abdominal tone [2, 10]: Mild | Body weight after 1° dose [2, 10]: 23.2 | Body weight after 4° dose [2, 10]: 21.7 | Limb tone [2, 10]: Mild | Abdominal tone [2, 11]: Mild | Body weight after 1° dose [2, 11]: 23 | Body weight after 4° dose [2, 11]: 22 | Limb tone [2, 11]: Mild | Abdominal tone [2, 12]: Mild | Body weight after 1° dose [2, 12]: 23 | Body weight after 4° dose [2, 12]: 22 | Limb tone [2, 12]: increased and Mild | Acute toxicity or mortality ([2]; all tested dose groups, MB076 IV with meropenem + cilastatin SC, QID q6h one day, neutropenic uninfected female ICR mice): No acute toxicity or mortality was observed | Piloerection [2, 8]: 4/4 after | Piloerection [2, 9]: 4/4 after | Piloerection [2, 10]: 4/4 after | Piloerection [2, 11]: 4/4 after | Piloerection [2, 12]: 4/4 after | Vocalization [2, 8]: 1/4 | Vocalization [2, 9]: 0/4 | Vocalization [2, 10]: 2/4 | Vocalization [2, 11]: 3/4 | Vocalization [2, 12]: 0/4 | MIC of cefepime in combination with compound (E. coli 29838): < 0.25 µg/mL | MIC of cefepime in combination with compound (K. pneumoniae ST17): 16 µg/mL | MIC of cefepime in combination with compound (K. pneumoniae ST258 B5): 8 µg/mL | MIC of cefepime in combination with compound [3]: < 0.25 µg/mL | MIC [4]: > 32 µg/mL | MIC [5]: > 32 µg/mL | MIC [6]: > 32 µg/mL | AUC(0-inf) [7, 13]: 7200 ng·h/mL | AUC(0-t) [7, 13]: 7100 ng·h/mL | C0 [7, 13]: 35.6 µg/mL | clearance [7, 13]: 29.1 mL/min/kg | half-life [7, 13]: 33.6 min | Vd [7, 13]: 0.65 L/kg | AUC(0-inf) [7, 14]: 17800 ng·h/mL | AUC(0-t) [7, 14]: 17600 ng·h/mL | C0 [7, 14]: 84 µg/mL | clearance [7, 14]: 23.4 mL/min/kg | half-life [7, 14]: 36.6 min | Vd [7, 14]: 0.8 L/kg | AUC(0-inf) [7, 15]: 39100 ng·h/mL | AUC(0-t) [7, 15]: 39000 ng·h/mL | C0 [7, 15]: 207 µg/mL | clearance [7, 15]: 21.3 mL/min/kg | half-life [7, 15]: 25.8 min | Vd [7, 15]: 0.35 L/kg | AUC(0-inf) [7, 16]: 104000 ng·h/mL | AUC(0-t) [7, 16]: 103000 ng·h/mL | C0 [7, 16]: 638 µg/mL | clearance [7, 16]: 16.1 mL/min/kg | half-life [7, 16]: 25.8 min | Vd [7, 16]: 0.21 L/kg | AUC(0-inf) [7, 17]: 1000 ng·h/mL | AUC(0-t) [7, 17]: 1000 ng·h/mL | C0 [7, 17]: 6.3 µg/mL | half-life [7, 17]: 14.4 min | Vd [7, 17]: 2.96 L/kg | AUC(0-inf) [7, 18]: 1800 ng·h/mL | AUC(0-t) [7, 18]: 1700 ng·h/mL | C0 [7, 18]: 17 µg/mL | half-life [7, 18]: 6.6 min | Vd [7, 18]: 1.38 L/kg | AUC(0-inf) [7, 19]: 6300 ng·h/mL | AUC(0-t) [7, 19]: 6300 ng·h/mL | C0 [7, 19]: 34 µg/mL | half-life [7, 19]: 12.6 min | Vd [7, 19]: 1.76 L/kg | AUC(0-inf) [7, 20]: 17300 ng·h/mL | AUC(0-t) [7, 20]: 17200 ng·h/mL | C0 [7, 20]: 108 µg/mL | half-life [7, 20]: 15 min | Vd [7, 20]: 1.07 L/kg | Linearity of C0 and AUClast with dose ([7]; plasma and thigh homogenates, 12.5-100 mg/kg IV): correlated linearly with dose
